Reference: PMC10786692 (The Journal of Clinical Investigation, 2024)
Several values for one entry are separate records, joined by “and”; a condition that tells them apart may be missing. Identical values can stand only once. Like-named read-outs stand apart in the source and are kept apart here.

Columns and labels:
Type in all cases: in vivo, human
tumor biopsies = assay: Stromal TIL count (H&E) and PD-L1 IHC in tumor biopsies
Excerpt: Supplementary Pharmacodynamic methods
Formalin fixed paraffin-embedded tumor samples were used. […]
Quantification of tumor-infiltrating lymphocytes was done using a semi-automated method in QuPath (53). Scanned H&E sections were first segmented into tumor and stroma, using a random trees machine-learning classifier, for each tumor section. Nuclei were segmented using Stardist (54), then stromal nuclei were sorted by size (area <20 µm2) and circularity (>0.85), using small circular nuclei to approximate lymphocyte

[1] = Change in full blood count parameters with time (bone marrow toxicity); design: Lymphocyte change / Monocyte change / Hb change: unit not given here; conditions: for Neutrophil / Platelet: in 10^9/L (unit assumed)
Procedure: Patients were assessed weekly during cycle 1 and twice weekly thereafter, with safety assessments including blood hematology and biochemistry, physical examination, and toxicity scoring. Safety and tolerability were assessed using Common Terminology Criteria for Adverse Events (CTCAE), version 4.03.

[2] = Plasma pharmacokinetics of ceralasertib (HPLC-MS/MS, NCA); conditions: for half-life: read-out: Mean terminal elimination half-life
Procedure: Intensive PK sampling in part A occurred after a single dose from predose up to 24 to 72 hours and again at day 15 and day 29 of continuous dosing. Participants fasted for 1 hour before and 2 hours after dosing for PK assessment. In part B, sampling coincided with day 15 PD assessments. Full details are given in Supplemental Methods. […]
Evaluated PK […]
maximum observed plasma concentration (Cmax), time to Cmax (tmax), and apparent terminal half-life (t1/2) calculated as ln/lambda-z where lambda-z (lz) is the apparent terminal phase rate- […]
constant estimated by linear regression of logarithmically-transformed concentration-versus-time data. A minimum of three data points were used in calculating lz as per AstraZeneca standard operating procedures. Data from multiple dosing were used to derive accumulation ratios based on Cmax (Race Cmax) and AUC(0-8) (Rac AUC0-8) defined as the ratio between Cmax or AUC(0-8) after multiple dose and Cmax and AUC(0-8) at day 1. All PK parameters for […]
WinNonLin v8.3 software or higher where the ‘linear up/log down trapezoidal rule’ for AUC was […]
applied. […]

[3] = part B, 160mg (continuous), change from relative day 0, per patient and time point
[4] = part B, 160mg (continuous), per patient and time point
[5] = patient B138, part B, 160mg (intermittent), time point C1D1
[6] = patient B466, part B, 160mg (intermittent), C26D15, relative day 589
[7] = patient B466, part B, 160mg (intermittent), C26D15, relative day 589, change from Day 0
[8] = patient B466, part B, 160mg (intermittent), C27D15, relative day 603
[9] = patient B466, part B, 160mg (intermittent), C27D15, relative day 603, change from Day 0
[10] = patient B466, part B, 160mg (intermittent), C28D15, relative day 617
[11] = patient B466, part B, 160mg (intermittent), C28D15, relative day 617, change from Day 0
[12] = patient B466, part B, 160mg (intermittent), C29D15, relative day 645
[13] = patient B466, part B, 160mg (intermittent), C29D15, relative day 645, change from Day 0
[14] = patient B466, part B, 160mg (intermittent), C30D15, relative day 673
[15] = patient B466, part B, 160mg (intermittent), C30D15, relative day 673, change from Day 0
[16] = patient B466, part B, 160mg (intermittent), C31D15, relative day 701
[17] = patient B466, part B, 160mg (intermittent), C31D15, relative day 701, change from Day 0

C[C@@H]1COCCN1c1cc(C2([S@](C)(=N)=O)CC2)nc(-c2cc[nH]c3nccc2-3)n1 [ceralasertib]
Stromal TILs, paired samples (tumor biopsies; a responding patient (not in 3 nonresponders)): appeared to increase | Immune-cell infiltration and PD-L1 staining on immune cells in paired biopsies (tumor biopsies; responding patient, 40 mg BD, HNSCC, 2 weeks): increase | Platelets and other hematological parameters, intermittent versus continuous schedule ([1]; 160 mg BD, recovering in the treatment break): more favorable | Hb change [1, 3]: 0 | Lymphocyte change [1, 3]: 0 | Monocyte change [1, 3]: 0 | Platelet change [1, 3]: 0 | Neutrophil [1, 4]: 3.29 | Platelet [1, 4]: 210 | Hb ([1]; part B, dose cohort 160mg (continuous), per patient and time point): 13.7 | Hb [1, 5]: 11.5 | Neutrophil [1, 5]: 8.54 | Platelet [1, 5]: 213 | Hb [1, 6]: 101 g/L | Lymphocyte change [1, 7]: 0.4 | Monocyte change [1, 7]: 0.2 | Platelet change [1, 7]: 125 | Neutrophil [1, 6]: 4.5 | Platelet [1, 6]: 571 | Hb [1, 8]: 96 | Lymphocyte change [1, 9]: 0 | Monocyte change [1, 9]: -0.8 | Platelet change [1, 9]: -198 | Neutrophil [1, 8]: 2.7 | Platelet [1, 8]: 248 | Hb [1, 10]: 99 | Lymphocyte change [1, 11]: 0 | Monocyte change [1, 11]: 0.2 | Platelet change [1, 11]: 142 | Neutrophil [1, 10]: 2.7 | Platelet [1, 10]: 588 | Hb [1, 12]: 100 g/L | Lymphocyte change [1, 13]: 0.5 | Monocyte change [1, 13]: -0.6 | Platelet change [1, 13]: 143 | Neutrophil [1, 12]: 4.6 | Platelet [1, 12]: 589 | Hb [1, 14]: 103 g/L | Lymphocyte change [1, 15]: 0.5 | Monocyte change [1, 15]: 0.1 | Platelet change [1, 15]: 118 | Neutrophil [1, 14]: 3.9 | Platelet [1, 14]: 564 | Hb [1, 16]: 101 g/L | Monocyte change [1, 17]: 0.2 | Platelet change [1, 17]: 172 | Platelet [1, 16]: 618 | Plasma concentration, individual patients ([2]; 20 mg day 0, 24 h): 142 ng/mL and 138 ng/mL and 380 ng/mL | Plasma concentration, individual patients ([2]; 20 mg day 1, 24 h): 632 ng/mL and 586 ng/mL and 929 ng/mL | Plasma concentration, individual patients ([2]; 40 mg day 0, 0 h, in ng/mL): 0 | Plasma concentration, individual patients ([2]; 40 mg day 0, 0.5 h): 760 ng/mL and 1280 ng/mL and 301 ng/mL | Plasma concentration, individual patients ([2]; 40 mg day 0, 1 h): 1150 ng/mL and 2230 ng/mL and 1660 ng/mL | Plasma concentration, individual patients ([2]; 40 mg day 0, 2 h): 1660 ng/mL and 1430 ng/mL | Plasma concentration, individual patients ([2]; 40 mg day 0, 4 h): 1330 ng/mL and 1170 ng/mL | Plasma concentration, individual patients ([2]; 40 mg day 0, 8 h): 894 ng/mL and 668 ng/mL | Plasma concentration, individual patients ([2]; 40 mg day 0, 24 h): 226 ng/mL and 224 ng/mL | Plasma concentration, individual patients ([2]; 40 mg day 1, 0.5 h): 1850 ng/mL and 634 ng/mL and 1990 ng/mL | Plasma concentration, individual patients ([2]; 40 mg day 1, 1 h): 1440 ng/mL and 1570 ng/mL | Plasma concentration, individual patients ([2]; 40 mg day 1, 2 h): 2060 ng/mL and 1610 ng/mL | Plasma concentration, individual patients ([2]; 40 mg day 1, 4 h): 1500 ng/mL and 1300 ng/mL | Plasma concentration, individual patients ([2]; 40 mg day 1, 8 h): 1190 ng/mL and 822 ng/mL | Plasma concentration, individual patients ([2]; 40 mg day 1, 24 h): 1220 ng/mL and 677 ng/mL | Plasma concentration, individual patients ([2]; 80 mg day 0, 0 h, in ng/mL): 0 | Plasma concentration, individual patients ([2]; 80 mg day 0, 0.5 h): 0 ng/mL | Plasma concentration, individual patients ([2]; 80 mg day 0, 2 h): 2900 ng/mL and 1130 ng/mL and 2000 ng/mL and 4130 ng/mL and 1950 ng/mL and 3230 ng/mL | Plasma concentration, individual patients ([2]; 80 mg day 0, 4 h): 2010 ng/mL and 3030 ng/mL and 1520 ng/mL | Plasma concentration, individual patients ([2]; 80 mg day 0, […], in ng/mL): 0 | Plasma concentration, individual patients ([2]; 80 mg day 1, 0.5 h): 2360 ng/mL and 757 ng/mL and 378 ng/mL and 2950 ng/mL and 1020 ng/mL and 1250 ng/mL | Plasma concentration, individual patients ([2]; 80 mg day 1, 1 h): 4420 ng/mL and 1340 ng/mL and 816 ng/mL and 2960 ng/mL and 939 ng/mL and 2250 ng/mL | Plasma concentration, individual patients ([2]; 80 mg day 1, 2 h): 3650 ng/mL and 1700 ng/mL and 1500 ng/mL and 2460 ng/mL and 1310 ng/mL and 2040 ng/mL | Plasma concentration, individual patients ([2]; 80 mg day 1, 4 h): 3230 ng/mL and 1160 ng/mL and 3200 ng/mL | Oral absorption ([2]; all doses, single and multiple dose): rapidly orally absorbed | concentration at 0 h ([2]; human, plasma, oral, 20 mg, 20 mg day 0, 0 h, read-out: Plasma concentration, individual patients): 0 ng/mL | concentration at 4 h ([2]; human, plasma, oral, 20 mg, 20 mg day 0, 4 h, read-out: Plasma concentration, individual patients): 885 ng/mL | concentration at 8 h ([2]; human, plasma, oral, 20 mg, 20 mg day 0, 8 h, read-out: Plasma concentration, individual patients): 562 ng/mL | concentration at 2 h ([2]; human, plasma, oral, 20 mg, 20 mg day 1, 2 h, read-out: Plasma concentration, individual patients): 757 ng/mL | concentration at 4 h ([2]; human, plasma, oral, 20 mg, 20 mg day 1, 4 h, read-out: Plasma concentration, individual patients): 1020 ng/mL | concentration at 8 h ([2]; human, plasma, oral, 20 mg, 20 mg day 1, 8 h, read-out: Plasma concentration, individual patients): 618 ng/mL | concentration at 2 h ([2]; human, plasma, oral, 40 mg, 40 mg day 0, 2 h, read-out: Plasma concentration, individual patients): 2220 ng/mL | concentration at 4 h ([2]; human, plasma, oral, 40 mg, 40 mg day 0, 4 h, read-out: Plasma concentration, individual patients): 1450 ng/mL | concentration at 8 h ([2]; human, plasma, oral, 40 mg, 40 mg day 0, 8 h, read-out: Plasma concentration, individual patients): 1010 ng/mL | concentration at 24 h ([2]; human, plasma, oral, 40 mg, 40 mg day 0, 24 h, read-out: Plasma concentration, individual patients): 203 ng/mL | concentration at 1 h ([2]; human, plasma, oral, 40 mg, 40 mg day 1, 1 h, read-out: Plasma concentration, individual patients): 2490 ng/mL | concentration at 2 h ([2]; human, plasma, oral, 40 mg, 40 mg day 1, 2 h, read-out: Plasma concentration, individual patients): 2290 ng/mL | concentration at 4 h ([2]; human, plasma, oral, 40 mg, 40 mg day 1, 4 h, read-out: Plasma concentration, individual patients): 1640 ng/mL | concentration at 8 h ([2]; human, plasma, oral, 40 mg, 40 mg day 1, 8 h, read-out: Plasma concentration, individual patients): 996 ng/mL | concentration at 24 h ([2]; human, plasma, oral, 40 mg, 40 mg day 1, 24 h, read-out: Plasma concentration, individual patients): 1150 ng/mL | concentration at 0 h ([2]; human, plasma, oral, 80 mg, 80 mg day 0, 0 h, read-out: Plasma concentration, individual patients): 0 ng/mL | concentration at […] ([2]; human, plasma, oral, 80 mg, 80 mg day 0, […], read-out: Plasma concentration, individual patients): 0 ng/mL | concentration at 0 h ([2]; human, plasma, oral, 160 mg, 160 mg day 0, 0 h, read-out: Plasma concentration, individual patients): 0 ng/mL | concentration at 0 h ([2]; human, plasma, oral, 240 mg, 240 mg day 0, 0 h, read-out: Plasma concentration, individual patients): 0 ng/mL | concentration at 8 h ([2]; human, plasma, oral, 240 mg, 240 mg day 0, 8 h, read-out: Plasma concentration, individual patients): 4640 ng/mL | concentration at 12 h ([2]; human, plasma, oral, 240 mg, 240 mg day 0, read-out: Plasma concentration, individual patients): 4200 ng/mL | concentration at 0 h ([2]; human, plasma, oral, 240 mg, 240 mg day 15, 0 h, read-out: Plasma concentration, individual patients): 8530 ng/mL | concentration at 0.5 h ([2]; human, plasma, oral, 240 mg, 240 mg day 15, 0.5 h, read-out: Plasma concentration, individual patients): 13500 ng/mL | concentration at 1 h ([2]; human, plasma, oral, 240 mg, 240 mg day 15, 1 h, read-out: Plasma concentration, individual patients): 17000 ng/mL | concentration at 4 h ([2]; human, plasma, oral, 240 mg, 240 mg day 15, 4 h, read-out: Plasma concentration, individual patients): 13500 ng/mL | concentration at 8 h ([2]; human, plasma, oral, 240 mg, 240 mg day 15, 8 h, read-out: Plasma concentration, individual patients): 10200 ng/mL | concentration at 12 h ([2]; human, plasma, oral, 240 mg, 240 mg day 15, read-out: Plasma concentration, individual patients): 9080 ng/mL | concentration at […] ([2]; human, plasma, oral, 240 mg, 240 mg day 15, […], read-out: Plasma concentration, individual patients): 11200 ng/mL | half-life ([2]; human, plasma, oral, 40 and 80 mg dose levels): 5.3 to 7.7 h | half-life ([2]; human, plasma, oral, 160 and 240 mg dose levels): 11.2 to 12.8 h | Tmax ([2]; human, plasma, oral, all doses, single and multiple dose, read-out: Median time to peak drug concentration (tmax)): 0.5 to 4 h | Exposure versus dose ([2]; single dosing, 80 to 240 mg): increased approximately proportionally
